Measured values: ChEMBL document CHEMBL1201862, “PubChem BioAssay data set” (2004)
Activity calls are given as the source filed them.

What was measured:
[1] = Luminescence Cell-Based Dose Response HTS to Identify Activators of Luciferase Translation or Activity in H4 […] Cells. [Related pubchem assays: 1829 (Project Summary), 1814 (Primary HTS)]; type: functional
[2] = Luminescence Cell-Based Dose Confirmation HTS to Identify Activators of 5'UTR Stem-Loop Driven Alpha-Synuclein mRNA Translation in H4 Neuroglioblastoma Cells. [Related pubchem assays: 1829 (Project Summary), 1814 (Primary HTS)]; type: functional
H4 = test: Luminescence Cell-Based Dose Response HTS to Identify Activators of 5'UTR Stem-Loop Driven Prion Protein mRNA Translation in H4 Neuroglioblastoma Cells. [Related pubchem assays: 1829 (Project Summary), 1814 (Primary HTS)]; type: functional; details: Homo sapiens
Cytochrome P450 2C19 = Cytochrome P450 2C19 (Homo sapiens, UniProt P33261); test: Cytochrome panel assay with activity outcomes. Panel member name: p450-cyp2c19 Compounds with AC50 equal or less than 10 uM are considered active; type: functional; details: read-out: AC50
Cytochrome P450 2C19, sequence (P33261 whole entry): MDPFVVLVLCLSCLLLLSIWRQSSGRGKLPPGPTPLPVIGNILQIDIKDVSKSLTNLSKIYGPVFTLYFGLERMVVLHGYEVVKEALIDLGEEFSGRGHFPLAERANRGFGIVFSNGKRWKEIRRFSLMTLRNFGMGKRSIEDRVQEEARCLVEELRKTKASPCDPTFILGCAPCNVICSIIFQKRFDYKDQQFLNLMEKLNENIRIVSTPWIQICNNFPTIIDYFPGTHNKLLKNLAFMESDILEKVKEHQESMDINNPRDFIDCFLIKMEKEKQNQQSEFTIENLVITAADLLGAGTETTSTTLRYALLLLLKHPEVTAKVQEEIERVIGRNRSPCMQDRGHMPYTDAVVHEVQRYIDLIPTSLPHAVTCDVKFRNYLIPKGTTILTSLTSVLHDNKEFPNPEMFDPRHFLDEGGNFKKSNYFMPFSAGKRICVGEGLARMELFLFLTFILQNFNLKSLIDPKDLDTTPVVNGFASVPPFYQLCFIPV

Cytochrome P450 2C9 = Cytochrome P450 2C9 (Homo sapiens, UniProt P11712)
Cytochrome P450 2C9, sequence (P11712 whole entry): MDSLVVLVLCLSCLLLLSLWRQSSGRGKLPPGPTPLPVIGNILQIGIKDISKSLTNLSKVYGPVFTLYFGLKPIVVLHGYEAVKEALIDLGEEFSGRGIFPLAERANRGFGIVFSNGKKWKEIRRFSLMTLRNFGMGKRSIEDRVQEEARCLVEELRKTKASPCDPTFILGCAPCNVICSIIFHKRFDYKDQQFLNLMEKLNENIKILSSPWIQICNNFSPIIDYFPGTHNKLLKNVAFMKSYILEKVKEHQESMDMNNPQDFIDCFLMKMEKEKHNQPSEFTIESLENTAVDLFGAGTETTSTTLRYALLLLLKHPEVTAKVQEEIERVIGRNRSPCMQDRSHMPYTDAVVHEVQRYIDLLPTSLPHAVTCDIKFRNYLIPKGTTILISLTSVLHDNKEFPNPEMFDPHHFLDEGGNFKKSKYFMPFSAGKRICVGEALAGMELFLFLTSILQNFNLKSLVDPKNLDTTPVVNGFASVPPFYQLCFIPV

Cytochrome P450 1A2 = molecular target: T1, Cytochrome P450 1A2 (Homo sapiens, UniProt P05177);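 further: PubChem cytochrome P450 panel assay, CYP1A2 panel member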
T1 sequence (P05177 whole entry): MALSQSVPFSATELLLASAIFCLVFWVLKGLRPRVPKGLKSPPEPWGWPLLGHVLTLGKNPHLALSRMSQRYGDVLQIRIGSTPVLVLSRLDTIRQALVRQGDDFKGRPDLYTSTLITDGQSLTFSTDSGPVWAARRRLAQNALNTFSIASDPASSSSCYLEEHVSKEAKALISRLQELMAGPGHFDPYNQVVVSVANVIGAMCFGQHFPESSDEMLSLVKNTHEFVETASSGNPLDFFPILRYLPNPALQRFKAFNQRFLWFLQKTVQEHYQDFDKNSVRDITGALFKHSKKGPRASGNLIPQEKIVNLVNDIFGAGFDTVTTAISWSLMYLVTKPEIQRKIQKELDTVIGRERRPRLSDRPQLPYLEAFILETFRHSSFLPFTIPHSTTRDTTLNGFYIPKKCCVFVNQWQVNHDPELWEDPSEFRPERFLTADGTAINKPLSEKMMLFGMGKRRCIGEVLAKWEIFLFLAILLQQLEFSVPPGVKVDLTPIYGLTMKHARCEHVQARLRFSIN

Cytochrome P450 2D6 = Cytochrome P450 2D6 (Homo sapiens, UniProt P10635);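 further: CYP2D6 member of a cytochrome P450 panel assay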
Cytochrome P450 2D6, sequence (P10635 whole entry): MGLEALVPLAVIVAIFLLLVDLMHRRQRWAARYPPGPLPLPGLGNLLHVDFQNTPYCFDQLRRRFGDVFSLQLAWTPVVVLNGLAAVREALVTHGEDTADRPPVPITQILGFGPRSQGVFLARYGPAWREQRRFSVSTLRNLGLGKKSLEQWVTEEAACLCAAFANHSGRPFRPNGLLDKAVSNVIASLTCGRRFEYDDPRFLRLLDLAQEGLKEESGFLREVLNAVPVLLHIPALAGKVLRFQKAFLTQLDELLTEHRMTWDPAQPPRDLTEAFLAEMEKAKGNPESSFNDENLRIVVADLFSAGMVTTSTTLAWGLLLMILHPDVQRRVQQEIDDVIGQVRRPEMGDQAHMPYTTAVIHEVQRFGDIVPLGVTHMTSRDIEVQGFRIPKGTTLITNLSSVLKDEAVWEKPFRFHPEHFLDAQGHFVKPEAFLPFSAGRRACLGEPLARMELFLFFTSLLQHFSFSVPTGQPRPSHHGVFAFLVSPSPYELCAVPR

[3] = molecular target: T2, Corticotropin-releasing factor receptor 2/Corticotropin-releasing factor-binding protein (Homo sapiens, UniProt P24387+Q13324); test: activators of CRF receptor 2 with binding protein – uHTS hits, confirmation (AID 602473); type: functional; details: read-out: EC50_Mean
T2 sequence (Q13324 whole entry): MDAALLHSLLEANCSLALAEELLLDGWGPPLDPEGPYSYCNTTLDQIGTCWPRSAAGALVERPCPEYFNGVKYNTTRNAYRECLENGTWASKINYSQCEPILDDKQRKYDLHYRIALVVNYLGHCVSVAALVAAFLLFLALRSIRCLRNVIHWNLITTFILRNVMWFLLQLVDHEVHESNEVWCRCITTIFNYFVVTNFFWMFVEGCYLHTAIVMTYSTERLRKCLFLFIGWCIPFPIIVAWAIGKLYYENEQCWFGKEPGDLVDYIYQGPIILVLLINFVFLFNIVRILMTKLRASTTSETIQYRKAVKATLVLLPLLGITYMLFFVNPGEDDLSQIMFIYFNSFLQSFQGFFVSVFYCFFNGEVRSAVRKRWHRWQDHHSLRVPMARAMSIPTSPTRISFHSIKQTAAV
T2 sequence (P24387 whole entry): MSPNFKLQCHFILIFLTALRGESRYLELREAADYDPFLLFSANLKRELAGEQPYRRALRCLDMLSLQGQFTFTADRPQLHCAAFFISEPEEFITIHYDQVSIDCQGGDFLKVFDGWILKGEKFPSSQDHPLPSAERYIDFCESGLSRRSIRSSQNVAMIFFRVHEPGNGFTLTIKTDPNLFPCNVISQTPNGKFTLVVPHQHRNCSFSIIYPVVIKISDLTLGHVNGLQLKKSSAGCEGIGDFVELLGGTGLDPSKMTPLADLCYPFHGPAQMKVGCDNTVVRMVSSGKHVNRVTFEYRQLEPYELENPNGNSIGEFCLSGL

[4] = molecular target: T2, Corticotropin-releasing factor receptor 2/Corticotropin-releasing factor-binding protein; test: Dose Response confirmation of uHTS hits for small molecule antagonists of the CRF-binding protein and CRF-R2 receptor complex.; type: functional; details: read-out: IC50_Mean
Cytochrome P450 3A4 = Cytochrome P450 3A4 (Homo sapiens, UniProt P08684);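 further: CYP3A4 tested as one member of a cytochrome P450 panel screen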
Cytochrome P450 3A4, sequence (P08684 whole entry): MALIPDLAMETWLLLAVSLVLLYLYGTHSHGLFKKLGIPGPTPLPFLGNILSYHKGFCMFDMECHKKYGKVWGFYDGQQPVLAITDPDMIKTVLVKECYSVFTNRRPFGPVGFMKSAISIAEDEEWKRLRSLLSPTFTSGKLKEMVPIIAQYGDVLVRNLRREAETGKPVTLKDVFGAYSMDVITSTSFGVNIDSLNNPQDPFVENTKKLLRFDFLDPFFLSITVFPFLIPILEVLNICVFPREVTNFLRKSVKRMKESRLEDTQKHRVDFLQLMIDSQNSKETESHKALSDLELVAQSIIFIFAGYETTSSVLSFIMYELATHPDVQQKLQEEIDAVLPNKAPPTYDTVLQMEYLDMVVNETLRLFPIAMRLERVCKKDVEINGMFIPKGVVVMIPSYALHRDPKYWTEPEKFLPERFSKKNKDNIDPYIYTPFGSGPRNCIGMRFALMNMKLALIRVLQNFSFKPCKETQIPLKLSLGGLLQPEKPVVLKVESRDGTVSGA

## Clc1ccc(-c2csc(N3CCC(c4ccccc4)C3)n2)cc1 (stereo unspecified)
[1]
  EC50: 25.7 µM (active)
[2]
  EC50: 18.5 µM (active)
H4
  EC50: 31.5 µM (active)

## O=C(/C=C/c1ccccc1)NNC(=O)c1cccnc1
Cytochrome P450 2C19
  AC50: 31.6 µM (inconclusive)
Cytochrome P450 2C9
  AC50: 7.08 µM (inconclusive)

## C=CCn1c(SCC(=O)N2CC(=O)Nc3ccccc32)nc2scc(-c3ccccc3)c2c1=O
Cytochrome P450 1A2
  AC50: 14.1 µM (inconclusive)

## O=C(Nc1ccccc1N1CCOCC1)c1ccc([N+](=O)[O-])cc1
Cytochrome P450 2D6
  AC50: 15.8 µM (inconclusive)
Cytochrome P450 2C9
  AC50: 10 µM (inconclusive)

## COc1ccc(CNC(=O)CN2CCN(S(=O)(=O)c3cc(Br)ccc3Br)CC2)cc1OC
[3]
  EC50: > 53 µM (inactive)
[4]
  IC50: > 47.1 µM (inactive)

## CSc1ccccc1NC(=O)c1cc(-c2cccs2)on1
[1]
  EC50: > 120 µM (not active)
[2]
  EC50: 55.7 µM (active)
H4
  EC50: 17.9 µM (active)

## Cc1ccccc1N(CC(=O)N1CCN(Cc2ccccc2)CC1)S(C)(=O)=O
[3]
  EC50: > 53 µM (inactive)
[4]
  IC50: > 47.1 µM (inactive)

## O=C(CSc1nnc(Cn2nnc3ccccc32)o1)Nc1cccc(Cl)c1
Cytochrome P450 2C19
  AC50: 22.4 µM (inconclusive)
Cytochrome P450 2C9
  AC50: 15.8 µM (inconclusive)

## CCC(=C(CC)c1ccc(O)cc1)c1ccc(O)cc1 [DIETHYLSTILBESTROL]
Cytochrome P450 2D6
  AC50: 15.8 µM (inconclusive)
Cytochrome P450 2C19
  AC50: 15.8 µM (inconclusive)
Cytochrome P450 2C9
  AC50: 12.6 µM (active)
Cytochrome P450 1A2
  AC50: 15.8 µM (active)

## O=C(NCC1CCCO1)C(c1cccnc1)N(C(=O)Cc1cccs1)c1ccccc1 (stereo unspecified)
Cytochrome P450 2D6
  AC50: 15.8 µM (inconclusive)
Cytochrome P450 2C19
  AC50: 17.8 µM (inconclusive)
Cytochrome P450 2C9
  AC50: 15.8 µM (inconclusive)

## C=CC[C@@H]1C=C[C@H](Oc2ccc(C)cc2)[C@H](COC(=O)NCc2cccc3ccccc23)O1
Cytochrome P450 2D6
  AC50: 7.94 µM (inconclusive)
Cytochrome P450 2C9
  AC50: 3.98 µM (inconclusive)

## Nn1c(SCc2ccccc2)nnc1C1CCCCC1
[1]
  EC50: 10.6 µM (active)
[2]
  EC50: 25.5 µM (active)
H4
  EC50: 21 µM (active)

## CC(N=C1NS(=O)(=O)c2ccccc21)C(=O)N1CCc2ccccc2C1 (stereo unspecified)
[3]
  EC50: > 53 µM (inactive)
[4]
  IC50: > 47.1 µM (inactive)

## O=C(Nc1ccccc1)N1CCCC2(CCN(C(=O)c3csnn3)CC2)C1
Cytochrome P450 2D6
  AC50: 39.8 µM (inconclusive)
Cytochrome P450 2C19
  AC50: 3.98 µM (inconclusive)
Cytochrome P450 1A2
  AC50: 25.1 µM (inconclusive)

## O=C(CSc1nc2ccccc2c(=O)n1NC(=O)Cc1ccccc1)NCc1ccccc1Cl
Cytochrome P450 2D6
  AC50: 2.82 µM (inconclusive)

## O=C(CC(=O)NN=C1CCCC1)NCCc1ccccc1
Cytochrome P450 2C19
  AC50: 25.1 µM (inconclusive)

## CN(Cc1ccccc1)C(=O)c1cccc(NC(=O)Cc2ccc(NC(=O)C3CCCN(C(=O)CCc4ccccc4)C3)cc2)c1 (stereo unspecified)
[3]
  EC50: > 53 µM (inactive)
[4]
  IC50: > 47.1 µM (inactive)

## COC(=O)C1=C(C)NC(C)=C(C(=O)OC(C)C)[C@H]1c1cccc2nonc12 [(S)-ISRADIPINE]
Cytochrome P450 1A2
  AC50: 12.6 µM (inconclusive)

## Cc1ccc(S(=O)(=O)NN=C(S)Nc2cccc(F)c2)cc1
[3]
  EC50: > 53 µM (inactive)
[4]
  IC50: > 47.1 µM (inactive)

## COc1ccc(N2CCN(CCCNC(=O)CN3CCN(Cc4ccccc4C)C3=O)CC2)cc1
[3]
  EC50: > 53 µM (inactive)
[4]
  IC50: > 47.1 µM (inactive)

## Cc1cc(OCC(=O)C(C)(C)C)c2c(C)c(C)c(=O)oc2c1
[3]
  EC50: > 53 µM (inactive)
[4]
  IC50: > 47.1 µM (inactive)

## Oc1nc2cc(Cl)ccc2c(O)c1-c1ccc(Oc2ccccc2)cc1
Cytochrome P450 1A2
  AC50: 10 µM (inconclusive)
Cytochrome P450 3A4
  AC50: 10 µM (inconclusive)

## CC(=O)c1ccc(N(C(=O)Cn2nnc3ccccc32)C(C(=O)NCc2ccccc2)c2ccccn2)cc1 (stereo unspecified)
[1]
  EC50: 8.14 µM (active)
[2]
  EC50: > 120 µM (not active)
H4
  EC50: > 120 µM (not active)

## COc1cc(/C=C2\CCC(C)C3=C(c4cc(OC)c(OC)c(OC)c4)C(C#N)=C(N)OC32)cc(OC)c1OC (stereo unspecified)
[3]
  EC50: > 53 µM (inactive)
